Reference: patent US12655072B2, “Formulation system for compositions for enhancing nitrogen stabilizers” (Verdesian Life Sciences U.S., LLC, priority 2020, dated 2026)

Experiments:
nitrate reductase enzyme = assay: Field study: activity of nitrate reductase enzyme in the leaves; format: in vivo, corn
Procedure: (§1) The activity of nitrate reductase enzyme at V2-V3 and flowering (first fully developed leaf, three plants per plot) was measured. In addition, soil collection was performed for the determination of N-NO3 and N-NH4 up to 30 days after the application of the cover. This methodology was adapted by Cataldo et al (1975) and Kemper; Zewers (1986). Soil Fertility Center ([…]). Growth analysis was performed on dry plant mass every 30 days. Harvesting was performed at physiological maturity. The plants of the three central lines of each plot was harvested excluding 1.0 meter at each end. The rows were measured and the number of plants and ears per row harvested were counted. After harvesting, manual threshing was performed and the 100 grain mass was determined as well as the yield of the crop. Harvest results were estimated for kg/ha and bu/acre.

[1] = system: corn hybrid AG 8088 VT PRO; assay: Field study, no-till rainfed corn: harvest, dry plant mass, N content; format: in vivo; conditions: 135 kg/ha of N
Procedure: A field study was carried out of an area under no-till system that was cultivated with rainfed corn (i.e., without irrigation). The corn cultured was a corn hybrid AG 8088 VT PRO (High yield) with a Standak Top of 100 mL/ha and a plant density of 77,000 plants/ha. The following three formulations were applied at three different rates ([…]) to a field: • Trident Formulation (10-10-10; % polymer-% DCD-% NBPT) • Trident V Formulation (5-5-15; % polymer-% DCD-% NBPT) • Trident N Formulation (5-20-5; % polymer-% DCD-% NBPT)
As a control, plants were only treated with the nitrogen fertilizer (e.g., UAN with 30%-45% N) or were left untreated.
The nitrogen fertilizer was applied with 135 kg/ha of N, which corresponds to a dose of 75N/bu for 10.8 ton/ha of maize. In addition a typical herbicide, fungicide and insecticide program was adopted to remove all study variability due to weeds, diseases or insects throughout the study period;
The activity of nitrate reductase enzyme at V2-V3 and flowering (first fully developed leaf, three plants per plot) was measured. In addition, soil collection was performed for the determination of N—NO3 and N—NH4 up to 30 days after the application of the cover. This methodology was adapted by Cataldo et al (1975) and Kemper; Zewers (1986). Soil Fertility Center (CEFERT). Growth analysis was performed on dry plant mass every 30 days. Harvesting was performed at physiological maturity. The plants of the three central lines of each plot was harvested excluding 1.0 meter at each end. The rows were measured and the number of plants and ears per row harvested were counted. After harvesting, manual threshing was performed and the 100 grain mass was determined as well as the yield of the crop. Harvest results were estimated for kg/ha and bu/acre.

soil = assay: Field study: soil collection for determination of N-NO3 and N-NH4; format: in vivo
Procedure: as §1

[2] = cited from earlier work
[3] = first collection within 30 days
[4] = second collection within 30 days

1 ANR (activity of the enzyme nitrate reductase in the leaves) (nitrate reductase enzyme; first measurement (measured at V2-V3 and flowering)) | 2 ANR (activity of the enzyme nitrate reductase in the leaves) (nitrate reductase enzyme; second measurement (measured at V2-V3 and flowering)) | SMILES | MSCaule (production of dry mass of corn plants: corn plant stems) [1] [g plant−1] | MSEspiga [1] [g plant−1] | MSFolhas (production of dry mass of corn plants: leaves) [1] [g plant−1] | MSTotal (production of total dry mass of corn plants) [1] [g plant−1] | N Folha (leaf nitrogen content) [1] [dag kg−1] | N Grão [1] [kg ha−1] | grains of corn on the corn ear (FIG. 3) ([1]; compared to untreated) | 1 NH4 (NH4 values in the soil) (soil; [3]) [mg/kg] | 1 NO3 (NO3 values in the soil) (soil; [3]) [mg/kg] | 2 NH4 (NH4 values in the soil) (soil; [4]) [mg/kg] | 2 NO3 (NO3 values in the soil) (soil; [4]) [mg/kg] | solubility in water [2]
137.51 | 74.82 | NC(N)=O [Urea N, urea] | 148.04 | 191.75 | 80.28 | 420.06 | 2.24 | 115.04 | exhibited more grains of corn compared to ears that were untreated | 31.97 | 34.16 | 25.93 | 27.07 | –
– | – | N#CN=C(N)N [dicyandiamide] | – | – | – | – | – | – | – | – | – | – | – | about 41 g/l
